Measurements from PMC11568214, “The impact of 9-azaglycophymine and phenylguanidine derivatives on the proliferation of various breast cancer cell lines in vitro and in vivo” (Scientific Reports, 2024).

Tests used:
MDA-MB-468 [1] = test: Crystal violet (CV) cell viability assay, IC50 determination; format: cell-based, human
Protocol: For initial testing of the cytotoxic effect of the available glycophymine compounds (Table S2), cells were treated with compound in three concentrations: 1, 10 and 50 µM. Cells were seeded in 96-well plates and allowed to adhere overnight. Then they were treated for 72 h under standard culture conditions. […] For IC50 determination, the compounds were tested at seven concentrations (0.78, 1.56, 3.13, 6.25, 12.5, 25 and 50 µM). Subsequently, the cell viability was determined by using the crystal violet (CV) assay. Moreover, the selected compounds were tested against the mouse breast cancer cell line 4T1 (TNBC) as well. The compounds were prepared initially to obtain a stock solution of 20 mM in DMSO. Later, the working solutions were prepared by mixing the required amount of DMSO stock with the optimal medium for each cell line. The DMSO concentration in the final solution was always maintained lower than 0.5% to avoid any DMSO-derived side effects.
For CV assays, after 72 h treatment, the treatment medium was discarded from the 96-well plates, and the cells were washed using 50 µL of PBS. Cells were fixed by adding 50 µL of 4% (v/v) paraformaldehyde (PFA) in PBS for 15 min at room temperature (RT). Afterwards, PFA was discarded, and the plates were dried for 15 min at RT. 50 µL of CV working solution (0.1% w/v CV in PBS) were added to the wells, followed by 15 min incubation at RT. Subsequently, the CV solution was discarded, and the plates were washed using aqua bidest. (ddH2O) to remove any remaining CV solution. The plates were left to dry overnight at RT, and then 50 µL of 33% (v/v) acetic acid in ddH2O were added to each well. Finally, the absorbance was measured at 570 nm by using a SpectraMax M5 plate reader (Molecular Devices, California, USA) and at 670 nm as background wavelength. […] Additionally, gefitinib, an approved EGFR inhibitor of the quinazoline family, was tested as anti-proliferative positive control. The data represent the mean ± standard deviation derived from three independent biological replicates. Dose–response curves were generated by four-parametric non-linear regression analysis using the GraphPad Prism software (version: 10.1, San Diego, CA, USA). Based on that, IC50 values and standard deviations were calculated for each replicate individually.

184B5 = test: CV cell viability assay on healthy breast cell line; format: cell-based; conditions: Homo sapiens, 72 h
Protocol: (§1) The cell lines were cultured in standard growth medium consisting of RPMI1640 medium supplemented with 10% (v/v) FCS, 1% (v/v) penicillin/streptomycin and 1% (v/v) glutamine[25]–[29]. Two additional cell lines were included in the study representing non-tumorigenic (“healthy”) breast cells, namely 184B5 and MCF10A. These cell lines were cultured using an Endopan 3 medium kit in accordance with the manufacturer’s instruction. For passaging and seeding, cells were treated as previously described. In brief, seeding was done in low density with 6 × 10^3 cells/100 µL in 96-well plates, and with 1.5 × 10^5 cells/1 mL in 6-well plates. […]
(§2) For initial testing of the cytotoxic effect of the available glycophymine compounds (Table S2), cells were treated with compound in three concentrations: 1, 10 and 50 µM. […] Subsequently, the cell viability was determined by using the crystal violet (CV) assay. […]
(§3) For CV assays, after 72 h treatment, the treatment medium was discarded from the 96-well plates, and the cells were washed using 50 µL of PBS. […] Finally, the absorbance was measured at 570 nm by using a SpectraMax M5 plate reader (Molecular Devices, California, USA) and at 670 nm as background wavelength. […] Based on that, IC50 values and standard deviations were calculated for each replicate individually.

MCF-10A = test: as above; format: cell-based; conditions: Homo sapiens, 72 h
Protocol: as §1, §2, §3

BT-474 [2] = test: ROS production, DHR staining, flow cytometry; format: cell-based, human; parameters: key: ↑: induction; ↓: inhibition; ↔: no effect; conditions: BT-474, IC50 for 72 h
Protocol: (§4) The cells were stained with CFSE (1 µM) in PBS containing 0.1% (v/v) FCS for 10 min. Afterwards, cells were washed with PBS, and then seeded with growth medium in 6-well plates. The plates were incubated for 24 h under standard culture conditions. […] Subsequently, the cells were detached using 0.5 mL of 0.05% (v/v) Trypsin–EDTA for 3 min at 37 °C. Then trypsin was deactivated by the addition of FCS-containing growth medium. The cell suspensions were collected, centrifuged for 3 min at 800 rpm, and the cell pellets were resuspended in fresh PBS. Finally, the samples were analyzed by using flow cytometry. For ROS production analyses, the procedure was performed exactly as described above for the cell division experiments, except that the CFSE staining solution was replaced by DHR staining solution resulting in 1 µM of DHR in PBS containing 0.1% (v/v) FCS[34],[35].

HCC1937 [3] = test: ROS production, DHR staining, flow cytometry; format: cell-based, human; parameters: key: ↑: induction; ↓: inhibition; ↔: no effect; conditions: HCC1937, IC50 for 72 h
Protocol: as §4

MCF-7 [4] = test: ROS production, DHR staining, flow cytometry; format: cell-based, human; parameters: key: ↑: induction; ↓: inhibition; ↔: no effect; conditions: MCF-7, IC50 for 72 h
Protocol: as §4

MDA-MB-468 [5] = test: ROS production, DHR staining, flow cytometry; format: cell-based, human; parameters: key: ↑: induction; ↓: inhibition; ↔: no effect; conditions: MDA-MB-468, IC50 for 72 h
Protocol: as §4

BT-474 [6] = test: Apoptosis analysis, AnnV/PI staining, flow cytometry; format: cell-based, human; conditions: BT-474, IC50 for 72 h; control cells 20%
Protocol: (§5) Cells were seeded in 6-well plates and incubated for 24 h under standard culture conditions. […] For apoptosis analyses, the cell suspension was centrifuged for 3 min at 800 rpm, and the cell pellet was stained by using 100 µL of AnnV/PI working solution (5 µL of AnnV, 2 µL of PI in 100 µL of PBS) for 15 min at RT and protected from light. The staining was terminated by the addition of 900 µL of annexin binding buffer. Finally, all samples were analyzed by using flow cytometry (FACSAria III, BD Biosciences, New Jersey, USA).

HCC1937 [7] = test: as above; format: cell-based, human; conditions: HCC1937, IC50 for 72 h; control cells 19%
Protocol: as §5

MCF-7 [8] = test: as above; format: cell-based, human; conditions: MCF-7, IC50 for 72 h
Protocol: as §5

MDA-MB-468 [9] = test: as above; format: cell-based, human; conditions: MDA-MB-468, IC50 for 72 h
Protocol: as §5

4T1 = test: as above; format: cell-based, mouse; conditions: 4T1, IC50 for 72 h; control cells 31%
Protocol: as §5

[10] = Histopathology of tumors, kidneys, livers and spleens in the 4T1 in vivo study; parameters: species or system BALB/c mice
Source text: Tissue samples of tumors, kidneys, livers and spleens were fixed in 4% (v/v) formalin. After fixation, tissues were embedded in paraffin blocks, and 4 µm thick sections were obtained, mounted on glass slides, stained with Hematoxylin Eosin, and analyzed by using an Olympus BX43 microscope (Olympus, Tokyo, Japan). All slides were scanned with a Leica Biosystems Aperio AT2 with ×400 magnification (n = 3 per group). Virtual slides generated from Leica Aperio AT2 (Wetzlar, Germany) were additionally analyzed with Aperio ImageScope (v12.4.3.5008) and with FIJI-ImageJ software.

For O=c1[nH]c(Nc2ccc([N+](=O)[O-])cc2)nc2ccccc12 [Compound 19, 4′-nitro-9-aza-glycophymine], the “toxicity against MDA-MB-468 in comparison to gefitinib” value (MDA-MB-468 [1]; 72 h, Fig. S12) was “nearly three times higher toxicity”, the IC50 (MDA-MB-468 [1]; Homo sapiens, MDA-MB-468, 72 h treatment, mean ± SD) was 5.8 ± 0.3 µM and the IC50 (184B5) was about 4 µM. For the same compound, the IC50 (MCF-10A) was about 4 µM, the ROS (BT-474 [2]) was “↓” and the ROS (HCC1937 [3]) was “↓”. For the same compound, the ROS (MCF-7 [4]) was “↔”, the ROS (MDA-MB-468 [5]) was “↔” and the “percentage of apoptotic cells” value (BT-474 [6]) was 51%. For the same compound, the “percentage of apoptotic cells” value (HCC1937 [7]) was 47%, the “induction of apoptotic cell death” value (MCF-7 [8]) was “did neither activate caspases nor apoptotic cell death” and the “induction of apoptotic cell death” value (MDA-MB-468 [9]) was “did neither activate caspases nor apoptotic cell death”. The “percentage of apoptotic cells” value (4T1) was 69%, the “morphological changes in kidney, spleen and liver tissue” value ([10]; 5 and 20 mg/kg i.p., day 21, compared to control group) was “did not cause significant morphological changes” and the “extent of tumor necrosis” value ([10]; treated animals in comparison to the control group, day 21) was “a higher extent of necrosis was found in treated animals”.
